{
  "source": "patent US8895079B2",
  "about": "“Combinations of botanical extracts for promoting cardiovascular health” (National Research Council of Canada, priority 2005, dated 2014)",
  "key": {"[1]": {"system": "hamsters fed an atherogenic control diet", "assay": "Example 1: four week hamster study, plasma cholesterol and triglyceride levels", "format": "in vivo, Male Golden Syrian hamsters", "protocol": "A controlled, four week animal study was performed to compare and contrast the effects of three interventional strategies on blood cholesterol and triglyceride levels. Four randomized groups of 15 male Golden Syrian hamsters were fed isocaloric diets as follows: • Control a semi-synthetic casein-corn starch-sucrose diet that contained 0.15% (w/w) cholesterol and 5% (w/w) fat • BBRCI control diet containing 100 mg/kg·d of BBRCI • PS control diet containing 1% (w/w) PS • BBRCI+PS control diet containing 100 mg/kg·d BBRCI and 1% (w/w) PS BBRCI and PS were introduced into the diet by blending. The primary endpoint at the end of the study was to determine the effects of each intervention on circulating blood lipids including total cholesterol (T-C), high-density-lipoprotein cholesterol (HDL-C), nonHDL-C (which is indicative of LDL-C levels) and triglyceride (TG) profiles. All lipids were measured by the standard enzymatic method. Male Golden Syrian Hamsters were purchased from Charles River Co. housed individually in cages for two weeks prior to the commencement of the study. During this adjustment period, animals were fed with regular rodent chow diet with free access to both food and water. A total of 60 hamsters were weighed and randomly assigned to one of four groups of 15 animals each. Animals are subjected to a temperature-controlled environment with a 12:12 h light/dark cycle. Each group was fed with one of the four isocaloric experimental diets for a 4 week period. […] During the course of the experiment, animals were weighed weekly and food consumption was determined on a daily basis over the course of the experiment. At the conclusion of the study all animals were anaesthetized with isoflurane and killed by decapitation. Blood samples were collected into tubes containing ethylenediaminetetraacetic acid (EDTA). Red blood cells and plasma were separated and stored at −80° C. until further analysis. Plasma was analyzed for total cholesterol, HDL-C and TG concentrations, for which results are reported below. NonHDL-C was calculated by subtracting HDL-C from total cholesterol. FIGS. 1-3 and Table 2 represent the effects of BBRCI and PS alone or in combination on blood cholesterol and triglyceride levels. Values are means±SD, n=15. Data were analyzed by one-way ANOVA followed by Tukey test if significance was detected. A significant difference was indicated by a p<0.05."}, "[2]": {"system": "hamsters fed an atherogenic control diet", "assay": "Example 1: tissue weight relative to body weight and histopathological examination of organs", "format": "in vivo, Male Golden Syrian hamsters", "protocol": "Histopathological testing and examination of gross and microscopic examination of thin sections of the various organs were conducted by a certified pathologist. There were no significant changes in the appearance or weight of brain, lung, heart, spleen and kidney. However, the livers of control animals were observably yellowish and heavier than those of animals treated with BBRCI or plant stanols, or the combination of either. Table 3 summarizes the effect of BBRCI and plant stanols on the percent tissue weight relative to body weight."}, "[3]": {"system": "liver HMG-CoA reductase mRNA", "assay": "Example 1: liver HMG-CoA reductase mRNA expression, real-time PCR", "format": "in vivo, Male Golden Syrian hamsters", "conditions": "relative expression in reference to a housekeeping gene, Example 1, 4 weeks", "protocol": "Experiments were also conducted to determine the effect on the expression of genes associated with cholesterol in the liver and intestine. Total RNA was extracted and mRNA was converted to cDNA. The mRNA expression was measured by real-time PCR with four repeats and calculated as relative expression in reference to internal control of a housekeeping gene for each sample. Table 5 and FIG. 8a summarize the effect of BBRCI and PS alone or in combination on liver HMG-CoA reductase. […] HMG-CoA reductase is a rate-limiting enzyme in cholesterol biosynthesis. […] When a strong action occurs on cholesterol reduction through inhibiting cholesterol absorption, cholesterol biosynthesis is increased as compensatory response to the cholesterol loss due to the reduced absorption. The powerful synergistic action of BBRCI and PS on HMG-CoA reductase mRNA expression implies that the combination of these materials may act synergistically to reduce blood cholesterol, possibly by inhibiting cholesterol absorption."}, "[4]": {"system": "hamsters fed a diet containing 0.25% cholesterol", "assay": "Example 2: five week hamster study, blood lipid levels, 0.25% cholesterol diet, 1% PS", "format": "in vivo, male Golden Syrian hamsters", "conditions": "BBRCI 100 mg/kg·d and/or PS 1% (w/w)", "protocol": "In this example, a controlled, five week animal study was performed. A total of 48 male Golden Syrian hamsters were randomized into 4 groups of 12 and fed isocaloric diets as follows. Hamster husbandry, living and feeding conditions were similar to that used for Example 1. • Control a semi-synthetic casein-corn starch-sucrose diet that contained 0.25% (w/w) cholesterol • BBRCI control diet containing 100 mg/kg·d of BBRCI • PS control diet containing 1% (w/w) PS • BBRCI+PS control diet containing 100 mg/kg·d BBRCI and 1% (w/w) PS One objective of this example was to determine the effects of each intervention on circulating blood lipids including total cholesterol (T-C), high-density-lipoprotein cholesterol (HDL-C), nonHDL-C (which is indicative of LDL-C levels) and triglyceride (TG) profiles when hamsters were fed a diet containing a higher concentration of cholesterol, for example, 0.25% by weight in the diet. Table 6 summarizes the effect on blood lipid levels (values are means±SD, n=12). Data were analyzed by one-way ANOVA followed by Tukey test if significance was detected. A significant difference was indicated by a p<0.05."}, "[5]": {"conditions": "Example 1, 4 weeks, BBRCI 100 mg/kg·d and/or PS 1% (w/w)"}, "[6]": {"conditions": "Example 1, BBRCI 100 mg/kg·d, PS 1% (w/w)"}, "[7]": {"conditions": "plasma, 0.15% cholesterol diet, 4 weeks, BBRCI 100 mg/kg·d and/or PS 1% (w/w), means±SD, n=15"}, "[8]": {"conditions": "0.25% cholesterol diet, 5 weeks, means±SD, n=12"}},
  "note": "Marks after values point to notes of the source that are not given here.",
  "data": [
    {"smiles": "COc1ccc2cc3[n+](cc2c1OC)CCc1cc2c(cc1-3)OCO2", "note": "[BBRCI, Berberine chloride]", "values": [
      {"measurement": "HDL-C % difference from Control", "setting": "[1]; [5]", "result": "−16.2", "unit": "%"},
      {"measurement": "HDL-C/nonHDL-C % difference from Control", "setting": "[1]; [5]", "result": 19, "unit": "%"},
      {"measurement": "T-C % difference from Control", "setting": "[1]; [5]", "result": "−21.9", "unit": "%"},
      {"measurement": "TG % difference from Control", "setting": "[1]; [5]", "result": "−3.9", "unit": "%"},
      {"measurement": "nonHDL-C % difference from Control", "setting": "[1]; [5]", "result": "−28.2", "unit": "%"},
      {"measurement": "reduction of T-C relative to control", "setting": "[1]; [6]", "result": 22, "unit": "%"},
      {"measurement": "reduction of nonHDL-C relative to control", "setting": "[1]; [6]", "result": 28, "unit": "%"},
      {"measurement": "reduction of plasma TG levels", "setting": "[1]; Example 1, relative to control, BBRCI 100 mg/kg·d, PS 1% (w/w)", "result": 4, "unit": "%"},
      {"measurement": "T-C Concentration", "setting": "[1]; plasma, 0.15% cholesterol diet, 4 weeks, BBRCI 100 mg/kg·d and/or PS 1% (w/w) in diet, means±SD, n=15", "result": "169 ± 20^b mg/dl"},
      {"measurement": "HDL-C Concentration", "setting": "[1]; [7]", "result": "100 ± 17^b mg/dl"},
      {"measurement": "TG Concentration", "setting": "[1]; [7]", "result": "326 ± 111^a mg/dl"},
      {"measurement": "nonHDL-C Concentration", "setting": "[1]; plasma, calculated by subtracting HDL-C from total cholesterol, 0.15% cholesterol diet, 4 weeks, BBRCI 100 mg/kg·d and/or PS 1% (w/w), n=15", "result": "66 ± 14^b mg/dl"},
      {"measurement": "HDL-C/nonHDL-C", "setting": "[1]; ratio, plasma, 0.15% cholesterol diet, 4 weeks, BBRCI 100 mg/kg·d and/or PS 1% (w/w), n=15", "result": "1.60 ± 0.58^b"},
      {"measurement": "Liver, percent tissue weight relative to body weight", "setting": "[2]; [5]", "result": "4.4 ± 0.4^b percent"},
      {"measurement": "appearance of fatty liver", "setting": "[2]; Example 1, compared to the livers of the control animals", "result": "markedly reduced the appearance of fatty liver"},
      {"measurement": "HMG-CoA reductase mRNA expression", "setting": "[3]", "result": "0.98 ± 0.10^b"},
      {"measurement": "HDL-C Concentration", "setting": "[4]; [8]", "result": "93.1 ± 27.1^ab mg/dl"},
      {"measurement": "T-C Concentration", "setting": "[4]; [8]", "result": "264.7 ± 49.8^a mg/dl"},
      {"measurement": "TG Concentration", "setting": "[4]; [8]", "result": "549.1 ± 225.3^a mg/dl"},
      {"measurement": "nonHDL-C Concentration", "setting": "[4]; 0.25% cholesterol diet, 5 weeks, n=12", "result": "173.5 ± 66.5^a mg/dl"},
      {"measurement": "HDL-C % difference from Control", "setting": "[4]; Example 2, 5 weeks", "result": 1.7, "unit": "%"},
      {"measurement": "HDL-C/nonHDL-C % difference from Control", "setting": "[4]; Example 2, 5 weeks", "result": 29, "unit": "%"},
      {"measurement": "T-C % difference from Control", "setting": "[4]; Example 2, 5 weeks", "result": "−7.8", "unit": "%"},
      {"measurement": "TG % difference from Control", "setting": "[4]; Example 2, 5 weeks", "result": "−0.2", "unit": "%"},
      {"measurement": "nonHDL-C % difference from Control", "setting": "[4]; Example 2, 5 weeks", "result": "−11.1", "unit": "%"},
      {"measurement": "HDL-C/nonHDL-C", "setting": "[4]; ratio, 0.25% cholesterol diet, 5 weeks, n=12", "result": "0.66 ± 0.41^ab"}
    ]}
  ]
}
